The source of these data is PubChem BioAssay AID192 (DTP/NCI, 2004).

The test deals with BDF1 mice, B16 melanoma ip, median survival T/C. In words: NCI In Vivo Anticancer Drug Screen. Data for tumor model B16 Melanoma (intraperitoneal) in B6D2F1 (BDF1) mice. The conditions noted are these: endpoint: median survival time, higher = longer survival. The gist of the method:
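Read-out: survival or tumor size, given as treated/control ratio. Controls received vehicle only; animals bore transplantable tumors.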

Setting [1] is: dose: 6.25 mg/kg/injection, schedule: Q01DX009 (ip), vehicle: Klucel (hydroxypropylcellulose) (HPC).
The mark [2] stands for this setting: dose: 12.5 mg/kg/injection, schedule: Q01DX009 (ip), vehicle: Klucel (hydroxypropylcellulose) (HPC).
Where [3] appears, read: dose: 75.0 mg/kg/injection, schedule: Q01DX009 (ip), vehicle: Klucel (hydroxypropylcellulose) (HPC).
Setting [4] is: dose: 150.0 mg/kg/injection, schedule: Q01DX009 (ip), vehicle: Klucel (hydroxypropylcellulose) (HPC).
The mark [5] stands for this setting: dose: 300.0 mg/kg/injection, schedule: Q01DX009 (ip), vehicle: Klucel (hydroxypropylcellulose) (HPC).
The mark [6] stands for this setting: dose: 25.0 mg/kg/injection, schedule: Q01DX009 (ip), vehicle: Klucel (hydroxypropylcellulose) (HPC).
The mark [7] stands for this setting: dose: 25.0 mg/kg/injection, schedule: Q01DX009 (ip), vehicle: saline with Tween-80.
The mark [8] stands for this setting: dose: 6.25 mg/kg/injection, schedule: Q01DX009 (ip), vehicle: saline.
The mark [9] stands for this setting: dose: 25.0 mg/kg/injection, schedule: Q01DX009 (ip), vehicle: saline.
Where [10] appears, read: dose: 50.0 mg/kg/injection, schedule: Q01DX009 (ip), vehicle: Klucel (hydroxypropylcellulose) (HPC).
Setting [11] is: dose: 100.0 mg/kg/injection, schedule: Q01DX009 (ip), vehicle: Klucel (hydroxypropylcellulose) (HPC).
[12] abbreviates: dose: 200.0 mg/kg/injection, schedule: Q01DX009 (ip), vehicle: Klucel (hydroxypropylcellulose) (HPC).
Setting [13] is: dose: 25.0 mg/kg/injection, schedule: Q04DX003 (ip), vehicle: Klucel (hydroxypropylcellulose) (HPC).

SMILES strings stand for the structures. Values joined by “and” are separate entries in the source; they are usually repeats but may differ in a detail not shown here. Equal entries are not always repeated. Inconclusive results and toxic doses are left out.

Turning to `O=NN(CCF)C(=O)N[C@H]1CCCC[C@H]1O`, the T/C was 100 % of control (dose: 3.75 mg/kg/injection, schedule: Q01DX001 (ip), vehicle: saline); 105 % of control (dose: 7.5 mg/kg/injection, schedule: Q01DX001 (ip), vehicle: saline); 101 % of control (dose: 15.0 mg/kg/injection, schedule: Q01DX001 (ip), vehicle: saline); 222 % of control (dose: 60.0 mg/kg/injection, schedule: Q01DX001 (ip), vehicle: saline).
For the compound `Cn1c(=O)[nH]c2nncnc2c1=O`, the T/C by setting is: (dose: 0.37 mg/kg/injection, schedule: Q01DX009 (ip), vehicle: water) 99 % of control; (dose: 0.75 mg/kg/injection, schedule: Q01DX009 (ip), vehicle: water) 118 % of control; (dose: 1.5 mg/kg/injection, schedule: Q01DX009 (ip), vehicle: water) 103 % of control; (dose: 3.0 mg/kg/injection, schedule: Q01DX009 (ip), vehicle: water) 99 % of control.
As for `N#CSc1ccc(S(N)(=O)=O)cc1`, the T/C by setting is: under setting [1], 100 % of control; under setting [2], 103 % of control.
`NC(=O)c1ccccc1OCc1ccccc1`: the T/C is 100 % of control under setting [3], 101 % of control under setting [4] and 101 % of control under setting [5].
With `C[N+](C)(C)Cc1ccccc1`, the T/C is 109 % of control under setting [1], 107 % of control under setting [2] and 101 % of control under setting [6].
For the compound `CC#CS(=O)(=O)C(C)(C)C`, the T/C runs as follows: (dose: 50.0 mg/kg/injection, schedule: Q04DX003 (ip), vehicle: saline) 104 % of control; (dose: 100.0 mg/kg/injection, schedule: Q04DX003 (ip), vehicle: saline) 106 % of control; (dose: 200.0 mg/kg/injection, schedule: Q04DX003 (ip), vehicle: saline) 105 % of control.
Consider `COC(=O)NC1C(C)OC(OC2C/C=C(/C)C3C=CC4C(OC5CC(OC6CCC(OC7CC(O)C(OC8CCC(O)C(C)O8)C(C)O7)C(C)O6)C(OC(C)=O)C(C)O5)C(C)CC(C)C4C3(C)/C(O)=C3/C(=O)OC4(CC(C=O)=CC(O)C4/C=C\2C)C3=O)CC1(C)[N+](=O)[O-]` (stereo unspecified), for which the T/C is, setting by setting: (dose: 2.5 mg/kg/injection, schedule: Q01DX009 (ip), vehicle: water) 159 % of control; (dose: 5.0 mg/kg/injection, schedule: Q01DX009 (ip), vehicle: water) 165 % of control; (dose: 10.0 mg/kg/injection, schedule: Q01DX009 (ip), vehicle: water) 157 % of control.
For the compound `C[C@H]1CCC/C=C/[C@@H]2C[C@H](O)C[C@H]2[C@H](O)/C=C/C(=O)O1`, the T/C reads like this: (dose: 2.5 mg/kg/injection, schedule: Q01DX009 (ip), vehicle: Klucel (hydroxypropylcellulose) (HPC)) 116 % of control; (dose: 5.0 mg/kg/injection, schedule: Q01DX009 (ip), vehicle: Klucel (hydroxypropylcellulose) (HPC)) 104 % of control; (dose: 10.0 mg/kg/injection, schedule: Q01DX009 (ip), vehicle: Klucel (hydroxypropylcellulose) (HPC)) 103 % of control.
With `O=[N+]([O-])c1cccc(C(O)C=C(C(F)(F)F)C(F)(F)F)c1` (stereo unspecified), the T/C is, setting by setting: under setting [7], 93 % of control; (dose: 100.0 mg/kg/injection, schedule: Q01DX009 (ip), vehicle: saline with Tween-80) 86 % of control.
For `CC1=[N+](C)C(C)(C)CC(C)O1` (stereo unspecified), the T/C reads like this: (dose: 3.12 mg/kg/injection, schedule: Q01DX009 (ip), vehicle: saline) 91 % of control; under setting [8], 104 % of control; (dose: 12.5 mg/kg/injection, schedule: Q01DX009 (ip), vehicle: saline) 104 % of control; under setting [9], 91 % of control.
For the compound `Cl/C(=N\Nc1ccccc1)c1ccccc1`, the T/C (dose: 1.56 mg/kg/injection, schedule: Q01DX009 (ip), vehicle: Klucel (hydroxypropylcellulose) (HPC)) is 97 % of control; the T/C (dose: 3.13 mg/kg/injection, schedule: Q01DX009 (ip), vehicle: Klucel (hydroxypropylcellulose) (HPC)) was 86 % of control; the T/C under setting [1] was 90 % of control.
As for `CC(=O)CCN1C(=O)c2ccccc2C1=O`, the T/C reads like this: under setting [2], 96 % of control; under setting [6], 103 % of control; under setting [10], 95 % of control (2×) and 101 % of control; under setting [11], 99 % of control and 102 % of control; under setting [12], 94 % of control and 98 % of control and 112 % of control.
Consider `Nc1nc(N)c2c(Cl)c(CNc3ccc(Cl)c(Cl)c3)ccc2n1`, for which the T/C is 98 % of control (dose: 0.5 mg/kg/injection, schedule: Q01DX009 (ip), vehicle: saline with Tween-80); 96 % of control (dose: 1.0 mg/kg/injection, schedule: Q01DX009 (ip), vehicle: saline with Tween-80); 113 % of control (dose: 2.0 mg/kg/injection, schedule: Q01DX009 (ip), vehicle: saline with Tween-80); 107 % of control (dose: 4.0 mg/kg/injection, schedule: Q01DX009 (ip), vehicle: saline with Tween-80).
With `O=C(Nc1cccc(Cl)c1)ON1C(=O)C2C(C1=O)C1(Cl)C(Cl)C(Cl)C2(Cl)C1(Cl)Cl` (stereo unspecified), the T/C runs as follows: (dose: 12.5 mg/kg/injection, schedule: Q01DX009 (ip), vehicle: saline with Tween-80) 87 % of control; under setting [7], 96 % of control.
As for `O=C1CCC(N2C(=O)c3ccccc3C2=O)C(=O)N1` (stereo unspecified), the T/C is 100 % of control under setting [6]; 99 % of control under setting [13]; 102 % of control under setting [10]; 106 % of control (dose: 50.0 mg/kg/injection, schedule: Q04DX003 (ip), vehicle: Klucel (hydroxypropylcellulose) (HPC)); 94 % of control under setting [11]; 94 % of control (dose: 100.0 mg/kg/injection, schedule: Q04DX003 (ip), vehicle: Klucel (hydroxypropylcellulose) (HPC)). Moreover, the T/C reads like this: under setting [12], 100 % of control; (dose: 200.0 mg/kg/injection, schedule: Q04DX003 (ip), vehicle: Klucel (hydroxypropylcellulose) (HPC)) 99 % of control; (dose: 400.0 mg/kg/injection, schedule: Q01DX009 (ip), vehicle: Klucel (hydroxypropylcellulose) (HPC)) 102 % of control; (dose: 400.0 mg/kg/injection, schedule: Q04DX003 (ip), vehicle: Klucel (hydroxypropylcellulose) (HPC)) 94 % of control.
On to `O.O.O=c1[nH]cc(CO)c(=O)[nH]1.[NH2-].[NH2-].[Pt+2]`, for which the T/C by setting is: (dose: 3.12 mg/kg/injection, schedule: Q01DX009 (ip), vehicle: Klucel (hydroxypropylcellulose) (HPC)) 107 % of control; under setting [1], 106 % of control; under setting [6], 185 % of control.
For the compound `[O-]c1c[n+](C23CCC(c4ccccc42)c2ccccc23)no1`, the T/C under setting [3] is 102 % of control, the T/C under setting [4] is 100 % of control and the T/C under setting [5] is 108 % of control.
Turning to `Cc1ccc(OS(=O)(=O)c2ccc([N+](=O)[O-])cc2)cc1`, the T/C is, setting by setting: under setting [10], 97 % of control; under setting [11], 97 % of control; under setting [12], 111 % of control.
For the compound `CC(CO)NC(=O)C1C=C2c3cccc4[nH]cc(c34)CC2N(C)C1` (stereo unspecified), the T/C under setting [9] was 91 % of control; the T/C (dose: 50.0 mg/kg/injection, schedule: Q01DX009 (ip), vehicle: saline) was 91 % of control; the T/C (dose: 200.0 mg/kg/injection, schedule: Q01DX009 (ip), vehicle: saline) was 86 % of control.
For `CCCC[P+](c1ccccc1)(c1ccccc1)c1ccccc1`, the T/C reads like this: under setting [8], 90 % of control; under setting [9], 95 % of control.
In the case of `O=C1c2cccc3cc([N+](=O)[O-])cc(c23)C(=O)N1CCN1CCCC1`, the T/C is 109 % of control (dose: 1.56 mg/kg/injection, schedule: Q01DX009 (ip), vehicle: saline with Tween-80); 110 % of control and 111 % of control (dose: 3.12 mg/kg/injection, schedule: Q01DX009 (ip), vehicle: saline with Tween-80); 91 % of control and 118 % of control (dose: 6.25 mg/kg/injection, schedule: Q01DX009 (ip), vehicle: saline with Tween-80); 110 % of control under setting [7].
For `CNC(Cc1ccccc1)C1CCCCC1` (stereo unspecified), the T/C (dose: 6.25 mg/kg/injection, schedule: Q04DX003 (ip), vehicle: Klucel (hydroxypropylcellulose) (HPC)) is 102 % of control; the T/C (dose: 12.5 mg/kg/injection, schedule: Q04DX003 (ip), vehicle: Klucel (hydroxypropylcellulose) (HPC)) was 100 % of control; the T/C under setting [13] was 96 % of control.
